According to US20170065556A1, “ORAL FORMULATIONS OF PYRROLIDINE DERIVATIVES” (OBSEVA S.A., priority 2013, published 2017):

Assays:
[1] = female, human, in vivo, 20 h
Description: Twelve healthy Caucasian women aged 54-62 years (mean 58.3 years), with a weight of 51 to 67 kg (mean 60.6 kg±5.1) and a body mass index ranging between 19.4-25.5 kg/m2 (mean 23.12 kg/m2±2.05) were enrolled. They were administered, on three separate treatment periods of one week, either two consecutive (3Z,5S) doses of 600 mg/day (administered to subjects using 3 dispersible tablets of 200 mg in 150 ml of water) or two intramuscular injections of 12 mg/day betamethasone or both drugs in combination.
Therefore, pharmacokinetic parameters of the treatment with (3Z,5S) dispersible tablets were calculated for 12 subjects, whereas pharmacokinetic parameters of the combination treatment were assessed for 11 participants.
During each treatment period of one week, blood samples were collected for the analysis of (3Z,5S) and betamethasone at time points 0 (pre-dose) and at 0.25, 0.5, 0.75, 1, 1.5, 2, 3, 4, 6, 8, 10, 12, 16, 20 and 24 hours after first dose on day 1. The plasma was prepared and stored below −20° C. All samples were analysed using validated LC-MS/MS methods. For the analysis of (3Z,5S), the lower limit of quantification was 1.0 ng/ml. For betamethasone analyses, the lower limit of quantification was 0.5 ng/ml.
Pharmacokinetic parameters were estimated by non-compartmental methods using the Phoenix® WinNonLin® version 6.3 (Pharsight). […]

[2] = Qualitative solubility/crystallisation tests in solvents (15 mg scale); type: physicochemical

CO/N=C1/C[C@@H](CO)N(C(=O)c2ccc(-c3ccccc3C)cc2)C1 [(3Z,5S), (3Z,5S)-5-(hydroxymethyl)-1-[(2′-methyl-1,1′-biphenyl-4-yl)carbonyl]pyrrolidin-3-one-O-methyloxime]
% of Cmax [1]: 25% | Qualitative solubility, Dissolves in ([2]; solvent DIPE): 40 vol hot | Qualitative solubility, Dissolves in ([2]; solvent IPA): 4 vol hot | Qualitative solubility, Dissolves in ([2]; solvent MIBK): 4 vol hot | Qualitative solubility, Dissolves in ([2]; solvent THF): 4 vol cold | Qualitative solubility, Dissolves in / Comment ([2]; solvent heptanes): insoluble in 20 vol | Qualitative solubility, Dissolves in ([2]; solvent tBuOH): 6 vol hot | Qualitative solubility, Dissolves in ([2]; solvent toluene): 2 vol cold
